Columns and labels:
Assay type in all cases: cell-based, human
[1] = test system: motor neurons induced to differentiate from iPS cells derived from ALS patients (FUS-ALS) having a mutation in FUS; test: Stress granule formation (G3BP immunostaining), FUS-ALS motor neurons
Description: On day 40 from the start of differentiation induction, the formation of stress granules was examined using each differentiation-induced motor neuron in Example I-1. The detection of stress granules was performed by immunostaining with G3BP, which is a marker of stress granules.
Using the differentiation-induced motor neurons in Example I-1, drugs which cause the ALS phenotype to be restored were screened from existing drug libraries with the neurite length, ectopic localization of FUS protein, stress granule formation, LDH leakage ratio, CV-caspase 3-positive ratio, phosphorylated TDP-43 protein inclusion formation, and the like as indices.
As a result of the screening, ropinirole was found as a promising therapeutic agent for ALS. Tables 5 and 6 show the improvement ratio (%) in the ALS phenotype due to adding ropinirole to the medium. Here, ropinirole was added to the medium on days 35 to 40 from the start of the differentiation induction of each iPS cell. Here, it is assumed that days 35 to 40 from the start of differentiation induction correspond to the early stage of the ALS disease.
The improvement ratio (%) of the ALS phenotype was calculated by Equation (1).
[formula] [In Equation (1), A represents a measurement value of motor neurons induced to differentiate from iPS cells derived from ALS patients in the absence of ropinirole, and B represents a measurement value of motor neurons induced to differentiate from iPS cells derived from ALS patients in the presence of ropinirole, and C represents a measurement value of motor neurons induced to differentiate from iPS cells derived from healthy subjects in the absence of ropinirole.]
Subsequently, in the same manner as above, the efficacy in cases of administering lower concentrations of ropinirole was evaluated.
Each drug was added to the medium at a final concentration of 10 μM.

[2] = test system: motor neurons induced to differentiate from iPS cells derived from SALS patients; test: Neurite length, sporadic ALS model (Example III-1); conditions: final concentration 1 μM, days 35 to 40, measured on day 40, FIG. 10
From the text: In the same manner as in Example I-1, iPS cells derived from sporadic ALS (may be referred to below as “SALS”) patients were differentiated into motor neurons. All the iPS cells used were derived from dermal fibroblasts. Below, each differentiated motor neuron is identified by the patient number from whom the neuron was derived.
In the same manner as in Example II-1, iPS cells derived from sporadic ALS (SALS) patients were induced to differentiate into motor neurons, and then ropinirole with a final concentration of 1 μM was added to the medium. More specifically, for the period of days 35 to 40 from the start of differentiation induction, ropinirole having a final concentration of 1 μM was added to the medium. In addition, a group for which ropinirole was not added to the medium was prepared as a control. In addition, for comparison, iPS cells derived from healthy subjects were differentiated into motor neurons in the same manner as in Example I-1. No ropinirole was added to the medium of these motor neurons. As the iPS cells derived from a healthy subject, the same cells as used in Example I-1 were used.
Subsequently, on day 40 from the start of differentiation induction, the neurite length was measured for each motor neuron in the same manner as in Example I-2.
FIG. 10 is a graph showing measurement results of the neurite length of each motor neuron. […]

[3] = test system: motor neurons differentiated from iPS cells derived from 24 patients having sporadic ALS (SALS); test: CV caspase 3-positive ratio, 24 sporadic ALS patient models (Example III-5); conditions: final concentration 1 μM for 5 days
Description: In the same manner as in Example II-1, iPS cells derived from 24 patients having sporadic ALS (SALS) were differentiated into motor neurons and then ropinirole with a final concentration of 1 μM was added to the medium. In addition, for comparison, a group for which ropinirole was not added to the medium was prepared. In addition, as a control, a group for which iPS cells derived from healthy subjects were differentiated into motor neurons in the same manner as in Example I-1 was used. No ropinirole was added to the medium of these motor neurons. As the iPS cells derived from a healthy subject, the same cells as used in Example I-1 were used.
Below, each differentiated motor neuron is identified by the patient number from whom the neuron was derived.
In all of the motor neurons, the addition period of ropinirole was 5 days. The time to start the addition of ropinirole varied depending on the case and was from day 30 to day 70 from the start of the differentiation induction of each of the iPS cells.
Subsequently, for each motor neuron on day 5 after the addition of ropinirole, the ratio of CV caspase 3-positive neurons was measured in the same manner as in Example I-3.
FIG. 15 is a graph showing the measurement results of the ratio of CV caspase 3-positive neurons. […]

[4] = test system: motor neurons induced to differentiate from iPS cells derived from ALS patients (TDP-43-ALS) having a mutation in TDP-43; test: Neurite length in late stage ALS disease, TDP-43-ALS (Example I-9); conditions: final concentration 1 μM, added days 50 to 62 from start of differentiation induction, FIG. 14
Description: The efficacy of ropinirole was evaluated in the same manner as in Example I-8, except that the timing of adding ropinirole was changed to days 50 to 62 from the start of the differentiation induction of each iPS cell. It is assumed that days 50 to 62 after the start of induction of differentiation correspond to the late stage of the ALS disease.
Specifically, ropinirole was added to a medium of motor neurons induced to differentiate from iPS cells derived from ALS patients (FUS-ALS) having a mutation in FUS and motor neurons induced to differentiate from iPS cells derived from ALS patients (TDP-43-ALS) having a mutation in TDP-43 and the changes over time in the neurite length were measured. The measurement of neurite length was carried out in the same manner as in Example I-2. Ropinirole was added to the medium at a final concentration of 1 μM.
FIG. 14(a) is a graph showing the results of measurement of the changes over time in the neurite length of each motor neuron. In FIG. 14(a), the vertical axis represents the neurite length (relative value), the horizontal axis represents the number of days of culturing from the start of differentiation induction, and “+ROPI” represents the result of adding ropinirole to the medium. In addition, FIG. 14(b) is a graph enlarging the boxed portion of the graph of FIG. 14(a). […]

CCCN(CCC)CCc1cccc2c1CC(=O)N2 [Ropinirole, 4-(2-di-n-propylaminoethyl)-2(3H)-indole]
Stress granule formation improvement ratio ([1]; final concentration 0.1 nM): 8.2% | Stress granule formation improvement ratio ([1]; final concentration 1 nM): 23.2% | Stress granule formation improvement ratio ([1]; final concentration 10 nM): 39.3% | Stress granule formation improvement ratio ([1]; final concentration 0.1 μM, added days 35 to 40): 36.6% | Stress granule formation improvement ratio ([1]; final concentration 1 μM, added days 35 to 40): 34.4% | Stress granule formation improvement ratio ([1]; final concentration 10 μM, added days 35 to 40): 66.1% | Neurite length reduction [2]: significantly suppressed | Share of SALS cases in which the increase in CV caspase 3-positive ratio was suppressed ([3]; 16 of 22 cases): 72.73 % of SALS cases | Cases in which the increase in CV caspase 3-positive ratio was suppressed ([3]; among 22 SALS cases with confirmed increase (of 24), FIG. 15): 16 cases | Neurite length (changes over time), late stage [4]: neuroprotective action (maintenance of neurite length)
